From ChEMBL document CHEMBL1201862, “PubChem BioAssay data set” (2004)
Calls of active or inactive are those of the source.

How the values were obtained:
INS1 = experiment: INS-1E survival protection against cytokine death – cell-based, luminescence, retest, dose response (AID 449756); format: functional; details: Rattus norvegicus;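 also: cell death triggered by IL-1 beta plus TNF-alpha plus IFN-gamma mixture; protective hits raise ATP signal compared with cytokine alone wells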
[1] = Trypanosoma cruzi growth suppression in host cells – NIH3T3 host cells, beta-gal luminescence, confirmation (AID 2044); format: functional, cell-based;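 also: intracellular parasites grown in NIH/3T3 mouse fibroblasts as host cells; luminescent beta-galactosidase reporter signal from transgenic T. cruzi replicating inside host cells; inhibitors lower the luminescence signal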
[2] = NIH3T3 cell viability loss – ATP luminescence, mouse fibroblasts, counter-screen, dose response (AID 2010); format: functional, cell-based;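 also: cells exposed to compound for about 90 hours before reading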
Cytochrome P450 2C9 = Cytochrome P450 2C9 (Homo sapiens, UniProt P11712)
Chain of Cytochrome P450 2C9 (P11712 whole entry): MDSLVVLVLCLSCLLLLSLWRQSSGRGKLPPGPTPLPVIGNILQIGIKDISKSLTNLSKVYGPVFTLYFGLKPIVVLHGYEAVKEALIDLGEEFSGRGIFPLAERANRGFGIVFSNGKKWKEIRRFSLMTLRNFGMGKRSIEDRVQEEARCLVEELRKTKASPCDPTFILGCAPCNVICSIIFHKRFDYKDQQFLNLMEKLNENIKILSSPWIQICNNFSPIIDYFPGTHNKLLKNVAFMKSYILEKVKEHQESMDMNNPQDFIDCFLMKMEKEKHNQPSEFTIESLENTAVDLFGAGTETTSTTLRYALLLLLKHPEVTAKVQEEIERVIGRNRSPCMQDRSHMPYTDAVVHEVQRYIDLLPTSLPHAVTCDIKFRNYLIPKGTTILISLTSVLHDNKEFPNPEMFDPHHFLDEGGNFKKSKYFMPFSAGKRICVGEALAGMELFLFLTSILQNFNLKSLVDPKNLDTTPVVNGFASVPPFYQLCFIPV

Cytochrome P450 1A2 = biological target: T1, Cytochrome P450 1A2 (Homo sapiens, UniProt P05177);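 also: PubChem cytochrome P450 panel assay, CYP1A2 panel member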
T1 sequence (P05177 whole entry): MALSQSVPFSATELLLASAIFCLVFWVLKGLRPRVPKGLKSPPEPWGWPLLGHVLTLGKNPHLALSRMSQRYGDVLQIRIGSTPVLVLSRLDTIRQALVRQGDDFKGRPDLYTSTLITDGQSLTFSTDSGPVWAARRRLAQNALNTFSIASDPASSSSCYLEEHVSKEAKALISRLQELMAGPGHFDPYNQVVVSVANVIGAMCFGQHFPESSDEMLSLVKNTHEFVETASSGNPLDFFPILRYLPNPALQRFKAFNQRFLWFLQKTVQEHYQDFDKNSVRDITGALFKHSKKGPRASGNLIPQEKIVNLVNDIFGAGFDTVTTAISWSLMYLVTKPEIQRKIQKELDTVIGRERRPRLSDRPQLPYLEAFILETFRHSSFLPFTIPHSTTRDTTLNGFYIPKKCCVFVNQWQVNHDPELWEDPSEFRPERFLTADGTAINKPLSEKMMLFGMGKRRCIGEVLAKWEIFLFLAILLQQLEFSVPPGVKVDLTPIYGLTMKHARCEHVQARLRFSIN

Cytochrome P450 2C19 = Cytochrome P450 2C19 (Homo sapiens, UniProt P33261); experiment: Cytochrome panel assay with activity outcomes. Panel member name: p450-cyp2c19 Compounds with AC50 equal or less than 10 uM are considered active; format: functional
Chain of Cytochrome P450 2C19 (P33261 whole entry): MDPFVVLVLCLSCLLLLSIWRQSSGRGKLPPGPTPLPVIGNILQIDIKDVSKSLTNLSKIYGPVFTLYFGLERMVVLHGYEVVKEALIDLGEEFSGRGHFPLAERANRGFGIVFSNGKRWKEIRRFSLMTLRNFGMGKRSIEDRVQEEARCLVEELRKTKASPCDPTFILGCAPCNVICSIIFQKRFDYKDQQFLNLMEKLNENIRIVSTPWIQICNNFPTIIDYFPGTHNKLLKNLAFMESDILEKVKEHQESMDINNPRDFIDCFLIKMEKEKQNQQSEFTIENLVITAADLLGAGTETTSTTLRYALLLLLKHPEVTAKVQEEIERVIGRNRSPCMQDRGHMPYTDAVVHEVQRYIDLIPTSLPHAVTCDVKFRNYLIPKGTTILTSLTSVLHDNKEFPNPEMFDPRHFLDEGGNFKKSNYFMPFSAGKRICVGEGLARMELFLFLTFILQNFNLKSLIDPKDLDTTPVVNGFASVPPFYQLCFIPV

[3] = Luminescence Cell-Based Dose Retest to Confirm Inhibitors of Cancer Stem Cells. [Related pubchem assays (depositor defined):AID2717, AID2721]; format: functional; details: Homo sapiens
Cytochrome P450 3A4 = Cytochrome P450 3A4 (Homo sapiens, UniProt P08684);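 also: CYP3A4 tested as one member of a cytochrome P450 panel screen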
Chain of Cytochrome P450 3A4 (P08684 whole entry): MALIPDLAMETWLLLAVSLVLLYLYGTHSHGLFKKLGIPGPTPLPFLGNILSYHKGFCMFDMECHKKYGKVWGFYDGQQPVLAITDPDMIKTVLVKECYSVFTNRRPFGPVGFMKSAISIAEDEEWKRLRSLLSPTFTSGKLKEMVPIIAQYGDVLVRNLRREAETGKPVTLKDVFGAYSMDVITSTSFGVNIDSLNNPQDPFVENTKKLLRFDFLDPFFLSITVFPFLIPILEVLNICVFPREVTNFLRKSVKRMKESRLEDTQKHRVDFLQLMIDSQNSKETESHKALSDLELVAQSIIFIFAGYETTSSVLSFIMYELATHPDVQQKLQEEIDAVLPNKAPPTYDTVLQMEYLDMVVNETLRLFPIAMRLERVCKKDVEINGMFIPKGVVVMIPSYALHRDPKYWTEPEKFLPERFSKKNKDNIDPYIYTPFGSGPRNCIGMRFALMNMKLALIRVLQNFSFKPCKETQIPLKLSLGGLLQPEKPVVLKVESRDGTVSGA

SMILES: CC(=O)Nc1ccc(C2=CC(=O)C[C@H](c3ccc4c(c3)OCO4)C2)cc1
- AC50 (INS1): > 260 µM (inactive)

SMILES: O=C(Nc1cccc(-c2cn3cccnc3n2)c1)c1ccc(Br)o1
- EC50 [1]: 554 nM (active)
- EC50 [2]: > 60 µM (not active)

SMILES: COc1cccc2cc3c(=O)oc4ccccc4c3nc12
- AC50 (Cytochrome P450 2C9): 2.82 µM (inconclusive)

SMILES: COCC1C2CC[C@H]3C(OCc4ccc(F)cc4C(F)(F)F)OC[C@]4(C)[C@H]3C2=C(CN4C(=O)OC(C)(C)C)[C@H](C)C1COC (stereo partly specified)
- AC50 (Cytochrome P450 1A2): 31.6 µM (inconclusive)
- AC50 (Cytochrome P450 2C19; read-out: AC50): 39.8 µM (inconclusive)
- AC50 (Cytochrome P450 2C9): 20 µM (inconclusive)

SMILES: O=C(NCC(c1cccs1)N1CCOCC1)c1ccc(Cl)s1 (stereo unspecified)
- AC50 [3]: 2.89 µM (active)

SMILES: Cn1cc(-c2nc3cnc(Oc4ccccc4)nc3n(CCC#N)c2=O)c2ccccc21
- AC50 (Cytochrome P450 1A2): 3.16 µM (inconclusive)
- AC50 (Cytochrome P450 3A4): 7.94 µM (inconclusive)

SMILES: NC(=O)Cn1nc([N+](=O)[O-])nc1Oc1ccc(Br)cc1
- EC50 [1]: 174 nM (active)
- EC50 [2]: > 60 µM (not active)

SMILES: Cc1c(Br)c([N+](=O)[O-])nn1C(C)C(=O)Nc1nccs1 (stereo unspecified)
- AC50 (Cytochrome P450 1A2): 22.4 µM (inconclusive)

SMILES: COc1cc(/C=C(\C#N)c2nc3ccccc3[nH]2)ccc1Oc1ccc([N+](=O)[O-])cn1
- EC50 [1]: 1120 nM (active)
- EC50 [2]: > 30 µM (not active)

SMILES: CCCN(C/C=C\I)[C@@H]1CCc2ccc(O)cc2C1
- AC50 (Cytochrome P450 1A2): 25.1 µM (inconclusive)
- AC50 (Cytochrome P450 2C9): 25.1 µM (inconclusive)

SMILES: COc1cc2nncc(SCc3ccc(Cl)c(Cl)c3)c2cc1OC
- AC50 (Cytochrome P450 1A2): 0.794 µM (inconclusive)
- AC50 (Cytochrome P450 3A4): 2 µM (inconclusive)

SMILES: Cc1ccc(Nc2nc(-c3sc(NC(=O)c4cccc(Cl)c4)nc3C)cs2)cc1
- AC50 (Cytochrome P450 1A2): 14.1 µM (inconclusive)
- AC50 (Cytochrome P450 3A4): 11.2 µM (inconclusive)

SMILES: O=C(Nc1cc(C(F)(F)F)ccc1-n1cncn1)c1ccc(-c2ccccc2)cc1
- EC50 [1]: 489 nM (active)
- EC50 [2]: > 60 µM (not active)

SMILES: O=[N+]([O-])c1ccc(S(=O)(=O)N2CCN(c3ccc(N4CCOCC4)nn3)CC2)cc1
- EC50 [1]: 1120 nM (active)
- EC50 [2]: > 60 µM (not active)

SMILES: C=CC[C@@H]1C=C[C@@H](O/N=C\c2ccc(C(=O)N3[C@H](c4ccc(C)cc4)[C@@H](C)CC[C@H]3C(=O)OC)cc2)[C@@H](CO)O1
- AC50 (Cytochrome P450 2C19; read-out: AC50): 3.16 µM (inconclusive)

SMILES: COC(=O)[C@@]1(Cc2ccc(F)cc2)[C@H]2c3cc(C(=O)N4CCCC4)n(Cc4ccccc4)c3C[C@H]2CN1C(=O)c1ccccc1
- AC50 (Cytochrome P450 1A2): 20 µM (inconclusive)
- AC50 (Cytochrome P450 2C19; read-out: AC50): 31.6 µM (inconclusive)

SMILES: CC(C)C12CN3CC(C(C)C)(CN(C1)C3c1cccnc1)C2=O (stereo unspecified)
- AC50 (Cytochrome P450 1A2): 25.1 µM (inconclusive)
- AC50 (Cytochrome P450 2C9): 3.16 µM (inconclusive)

SMILES: CCOCCCNC(=O)c1cnc2cc(OC)ccc2c1O
- AC50 (INS1): > 260 µM (inactive)

SMILES: O=C(CSc1nc2ccccc2o1)NC(=O)NCc1ccccc1
- AC50 (Cytochrome P450 3A4): 22.4 µM (inconclusive)

SMILES: Cc1cccc(C)c1NC(=O)C[S+]([O-])CC(=O)Nc1ccc(F)cc1F (stereo unspecified)
- AC50 (Cytochrome P450 3A4): 14.1 µM (inconclusive)
- AC50 (Cytochrome P450 2C9): 39.8 µM (inconclusive)

SMILES: O=S(=O)(O)c1cc(/N=[N+](\[O-])c2cc(S(=O)(=O)O)c3ccccc3c2)cc2ccccc12
- AC50 (Cytochrome P450 1A2): 1.26 µM (inconclusive)
- AC50 (Cytochrome P450 2C19; read-out: AC50): 3.98 µM (inconclusive)
- AC50 (Cytochrome P450 2C9): 7.94 µM (inconclusive)

SMILES: COc1ccccc1/C=C/C(=O)NCC(=O)N/N=C/c1ccccc1[N+](=O)[O-]
- EC50 [1]: 1590 nM (active)
- EC50 [2]: > 60 µM (not active)

SMILES: CCOc1cc(/C=N/NC(=O)CNc2cccc(C)c2)ccc1OC(=O)c1ccccc1
- AC50 (Cytochrome P450 1A2): 14.1 µM (inconclusive)

SMILES: N#Cc1cc([N+](=O)[O-])ccc1Oc1cccc(/C=N/NC(=O)c2cccc(Cl)c2)c1
- EC50 [1]: 531 nM (active)
- EC50 [2]: > 60 µM (inconclusive)

SMILES: CC1(C)Cc2ccccc2C(N/N=C/c2cccc(F)c2)=N1
- AC50 (Cytochrome P450 2C19; read-out: AC50): 25.1 µM (inconclusive)

SMILES: COc1ccc(-c2nn(-c3ccccc3)cc2/C=N/Nc2ccc3ccccc3n2)cc1OC
- AC50 (INS1): 1.5 µM (active)

SMILES: CCc1ccc(-n2c(C)cc(/C=N/NC(=O)c3ccncc3)c2C)cc1
- AC50 (INS1): 14.9 µM (active)

SMILES: COc1cc([N+](=O)[O-])ccc1NC(=O)CC1S/C(=N\c2ccc(F)cc2)N(CCC2=CCCCC2)C1=O (stereo unspecified)
- AC50 (INS1): 4.29 µM (active)

SMILES: Cc1cccc(C)c1NC(=O)COc1cccc(/C=N/NC(=O)C(=O)NCc2ccccc2)c1
- AC50 (Cytochrome P450 2C19): inconclusive

SMILES: CC[n+]1ccccc1C=Cc1ccc(N(C)C)cc1
- EC50 [1]: 572 nM (active)
- EC50 [2]: > 60 µM (not active)

SMILES: O=C(O)C1=CCCN(CCOC(c2ccc(C(F)(F)F)cc2)c2ccc(C(F)(F)F)cc2)C1
- AC50 (Cytochrome P450 3A4): 39.8 µM (inconclusive)

SMILES: CCN1CCC[C@@H](OC(=O)C(c2ccccc2)c2ccccc2)C1 [PIPERIDOLATE]
- AC50 (Cytochrome P450 1A2): 0.00126 µM (inconclusive)
